Results published in article PMC3362575, “Synthesis and Biological Evaluation of Phenanthrenes as Cytotoxic Agents with Pharmacophore Modeling and ChemGPS-NP Prediction as Topo II Inhibitors” (PLoS ONE, 2012).
In brackets after ≈: the same amount, converted by molar mass.

Columns and labels:
[1] = tested on: HepG2; experiment: MTT cytotoxicity assay, HepG2; type: cell-based, human; details: Homo sapiens
Protocol: (§1) The cytotoxic assay of 11 naturally occurring and 19 synthesized phenanthrenes was carried out on a diverse set of human liver (HepG2 and Hep3B), oral (Ca9-22), lung (A549) and breast (MEA-MB-231 and MCF7) cancer cell lines, and a human fetal lung fibroblast (MRC-5) cell line (Tables 1 and 2).
(§2) Compounds were tested against human liver (HepG2 and Hep3B), oral (Ca9-22), lung (A549), breast (MEA-MB-231 and MCF7) cancer cell lines, and the human fetal lung fibroblast (MRC-5) cell line using an established colorimetric MTT assay protocol. The absorbance was measured at 550 nm using a microplate reader. The IC50 is the concentration of agent that reduced cell growth by 50% under the experimental conditions.

[2] = tested on: Hep3B; experiment: MTT cytotoxicity assay, Hep3B; type: cell-based, human; details: Homo sapiens, Hep3B
Protocol: as §1, §2

[3] = tested on: Ca9-22; experiment: MTT cytotoxicity assay, Ca9-22; type: cell-based, human; details: Homo sapiens
Protocol: as §1, §2

[4] = tested on: A549; experiment: MTT cytotoxicity assay, A549; type: cell-based, human; details: Homo sapiens
Protocol: as §1, §2

[5] = tested on: MCF-7; experiment: MTT cytotoxicity assay, MCF-7; type: cell-based, human; details: Homo sapiens; for IC50: MTT; for MCF-7 activity class (from IC50): MCF7, Table S3, read-out: Scale Exptl. (MCF-7 activity class)
Protocol: as §1, §2
The pharmacophore modeling with Catalyst HypoGen was performed via Discovery Studio 2.1 (Accelrys, San Diego, CA, USA). Twenty-nine phenanthrene derivatives were collected from the natural plant, C. arisanensis, and from chemical synthesis (Figure 2). Cytotoxicity against MCF-7 cells was determined by the MTT assay and the concentration (µg/mL) of test compound which inhibited 50% of the cancer cells (IC50) was used in the generation of the pharmacophore model. An IC50 value of >20 µg/mL was defined as 20 µg/mL. All experimental IC50 values spanned about 2–3 orders of magnitude from 0.09 to 20 µg/mL. The 2D/3D structures of compounds were generated using ChemBioOffice 2008 (Cambridge Scientic Computing, Cambridge, Massachusetts, USA) and then optimized in a Dreiding force field. The conformational ensemble of each compound was generated using the best conformational analysis method based on a CHARMM force field with a 20 kcal/mol energy threshold above the global minimum. A maximum limit of 255 conformations was used to cover maximum conformational space. The best 3D arrangements of chemical functionalities should explain the activity variations among the 29 compounds. Thirty runs with different parameters were performed for the best pharmacophore hypothesis. Four chemical features, including hydrogen-bond acceptor (HBA), hydrogen-bond donor (HBD), hydrophobic (HYD), and aromatic ring (AR) features, were also tested during the building of pharmacophore hypotheses (Table S1; Text S1). The best hypotheses were selected via a correlation and a cost analysis in Catalyst HypoGen.

[6] = tested on: MDA-MB-231; experiment: MTT cytotoxicity assay, MDA-MB-231; type: cell-based, human; details: Homo sapiens
Protocol: as §1, §2

[7] = tested on: MRC-5; experiment: MTT cytotoxicity assay, MRC-5 fetal lung fibroblast; type: cell-based, human; details: Homo sapiens, normal fetal lung fibroblast
Protocol: as §1, §2

[8] = tested on: human cancer cell lines; experiment: MTT cytotoxicity assay, ranges over the cancer cell line panel; type: cell-based
Protocol: as §1, §2

[9] = HepG2, Table 2, synthesized phenanthrenes
[10] = Table 2, synthesized phenanthrenes
[11] = Ca9-22, Table 2, synthesized phenanthrenes
[12] = A549, Table 2, synthesized phenanthrenes
[13] = MCF7, Table 2, synthesized phenanthrenes
[14] = MDA-MB-231, Table 2, synthesized phenanthrenes
[15] = MRC5, Table 2, synthesized phenanthrenes

Compound | IC50 [1, 9] | IC50 [2, 10] | IC50 [3, 11] | IC50 [4, 12] | IC50 [5, 13] | MCF-7 activity class (from IC50) [5] | IC50 [6, 14] | IC50 [7, 15] | activity against all human cancer cell lines ([8]; all human cancer cell lines) | IC50 ([8]; Homo sapiens, range over the cancer cell lines tested, read-out: IC50 against various / all human cancer cell lines) | IC50 ([1]; HepG2, Table 1, natural phenanthrenes) | IC50 ([2]; Table 1, natural phenanthrenes) | IC50 ([3]; Ca9-22, Table 1, natural phenanthrenes) | IC50 ([4]; A549, Table 1, natural phenanthrenes) | IC50 ([5]; MCF7, Table 1, natural phenanthrenes) | IC50 ([6]; MDA-MB-231, Table 1, natural phenanthrenes) | IC50 ([7]; MRC5, Table 1, natural phenanthrenes)
COc1cc2ccc3c(OC)ccc(OC)c3c2c(OC)c1OC [Compound 3a, 1,4,5,6,7-Pentamethoxy-phenanthrene] | > 20 µg/mL | 15.55 ± 0.08 µg/mL (≈ 47.4 µM) | > 20 µg/mL | > 20 µg/mL | > 20 µg/mL | > 20 µg/mL | > 20 µg/mL | > 20 µg/mL |  |  |  |  |  |  |  |  | 
COc1cc(OC)c2c(ccc3c(OC)ccc(OC)c32)c1 [Compound 3b, 1,4,5,7-Tetramethoxy-phenanthrene] | > 20 µg/mL | > 20 µg/mL | 18.44 ± 0.11 µg/mL (≈ 61.8 µM) | > 20 µg/mL | > 20 µg/mL | > 20 µg/mL | > 20 µg/mL | > 20 µg/mL |  |  |  |  |  |  |  |  | 
COc1cc2ccc3c(c2c(OC)c1OC)C(=O)C=CC3=O [Compound 4a, 5,6,7-Trimethoxy-1,4-phenanthrenequinone] | 15.68 ± 0.01 µg/mL (≈ 52.6 µM) | 7.33 ± 0.03 µg/mL (≈ 24.6 µM) | 2.17 ± 0.01 µg/mL (≈ 7.27 µM) | 15.94 ± 0.01 µg/mL (≈ 53.4 µM) | 13.2 ± 0.38 µg/mL (≈ 44.2 µM) | 1 to 20 µg/mL | 4.6 ± 0.06 µg/mL (≈ 15.4 µM) | 11.9 ± 0.12 µg/mL (≈ 40 µM) |  |  |  |  |  |  |  |  | 
COC1=CC(=O)c2ccc3cc(OC)cc(OC)c3c2C1=O [Compound 5b, 3,5,7-Trimethoxy-1,4-phenanthrenequinone] | 13 ± 0.21 µg/mL (≈ 43.5 µM) | 15.9 ± 0.21 µg/mL (≈ 53.5 µM) | 15.25 ± 0.05 µg/mL (≈ 51.1 µM) | 15.7 ± 0.17 µg/mL (≈ 52.7 µM) | 14.4 ± 0.28 µg/mL (≈ 48.3 µM) | 1 to 20 µg/mL | 19 ± 0.55 µg/mL (≈ 63.6 µM) | > 20 µg/mL | marginal activities |  |  |  |  |  |  |  | 
COC1=CC(=O)c2ccc3c(-c4c(OC)c(OC)c(OC)c5c6c(ccc45)C(=O)C=C(OC)C6=O)c(OC)c(OC)c(OC)c3c2C1=O [Compound 5d, 3,5,6,7,3′,5′,6,7′-Octamethoxy-[8,8′]bi-1,4,1′,4′-phenanthrenequinone] | 1.49 ± 0.01 µg/mL (≈ 2.28 µM) | 6.66 ± 0.13 µg/mL (≈ 10.2 µM) | 4.36 ± 0.03 µg/mL (≈ 6.66 µM) | 9.3 ± 0.48 µg/mL (≈ 14.2 µM) | 13.78 ± 0.06 µg/mL (≈ 21.1 µM) | 1 to 20 µg/mL | 14.8 ± 0.25 µg/mL (≈ 22.5 µM) | > 20 µg/mL |  |  |  |  |  |  |  |  | 
COC1=CC(=O)c2ccc3c(-c4c(OC)c(OC)c(OC)c5c6c(ccc45)C(=O)CC(OC)(OC)C6=O)c(OC)c(OC)c(OC)c3c2C1=O [Compound 5e, 3,5,6,7,3′,3′,5′,6,7′-nonamethoxy-2′3′-dihydro-[8,8′]bi-1,4,1′,4′-phenanthrenequinone] | 1.24 ± 0.08 µg/mL (≈ 1.81 µM) | 7.38 ± 0.02 µg/mL (≈ 10.7 µM) | 6.21 ± 0.12 µg/mL (≈ 9.04 µM) | 7.49 ± 0.07 µg/mL (≈ 10.9 µM) | 9.4 µg/mL (≈ 13.7 µM) | 1 to 20 µg/mL | 6.74 ± 0.05 µg/mL (≈ 9.82 µM) | 8.11 ± 0.25 µg/mL (≈ 11.8 µM) |  |  |  |  |  |  |  |  | 
COC1=CC(=O)c2ccc3cc(OC)cc(O)c3c2C1=O [Compound 6b, 5-Hydroxy-3,7-dimethoxy-1,4-phenanthrenequinone] | 0.23 ± 0.01 µg/mL (≈ 0.809 µM) | 0.34 µg/mL (≈ 1.2 µM) | 0.68 µg/mL (≈ 2.39 µM) | 0.99 ± 0.02 µg/mL (≈ 3.48 µM) | 0.26 µg/mL (≈ 0.915 µM) |  | 1.06 ± 0.03 µg/mL (≈ 3.73 µM) | 2.14 ± 0.08 µg/mL (≈ 7.53 µM) |  | 0.08 to 1.66 µg/mL (≈ 0.281 to 5.84 µM) |  |  |  |  |  |  | 
COc1cc2ccc3c(OC)ccc(OC)c3c2c(O)c1O [Compound 8a, 5,6-Dihydroxy-1,4,7-trimethoxy-phenanthrene] | 19.4 ± 0.56 µg/mL (≈ 64.5 µM) | 5.77 ± 0.63 µg/mL (≈ 19.2 µM) | 3.91 ± 0.07 µg/mL (≈ 13 µM) | > 20 µg/mL | 17 ± 0.42 µg/mL (≈ 56.6 µM) | 1 to 20 µg/mL | 15.6 ± 1.52 µg/mL (≈ 52 µM) | > 20 µg/mL |  |  |  |  |  |  |  |  | 
COc1cc(OC)c2c(ccc3c(OC)ccc(O)c32)c1 [Compound 8b, 4-Hydroxy-1,5,7-trimethoxy-phenanthrene] | 10.1 ± 0.66 µg/mL (≈ 35.5 µM) | 6.93 ± 0.19 µg/mL (≈ 24.4 µM) | 12.1 ± 0.37 µg/mL (≈ 42.5 µM) | 19.6 ± 0.22 µg/mL (≈ 68.9 µM) | 19.31 ± 0.08 µg/mL (≈ 67.9 µM) | 1 to 20 µg/mL | > 20 µg/mL | > 20 µg/mL |  |  |  |  |  |  |  |  | 
COc1cc2ccc3c(OC)ccc(OC)c3c2c(O)c1OC [Compound 9a, 5-hydroxy-1,4,6,7-tetramethoxy-phenanthrene] | > 20 µg/mL | > 20 µg/mL | > 20 µg/mL | > 20 µg/mL | > 20 µg/mL | > 20 µg/mL | > 20 µg/mL | > 20 µg/mL |  |  |  |  |  |  |  |  | 
COc1cccc2c1C(=O)c1c(O)c3c(c(O)c1C2=O)C[C@@](O)(C(=O)CO)C[C@@H]3O[C@H]1C[C@H](N)[C@H](O)[C@H](C)O1 [Doxo, Doxorubicin, reference compound] |  | 0.42 ± 0.01 µg/mL (≈ 0.773 µM) | 0.14 ± 0.04 µg/mL (≈ 0.258 µM) | 0.63 ± 0.15 µg/mL (≈ 1.16 µM) | 0.35 ± 0.09 µg/mL (≈ 0.644 µM) |  | 1.12 ± 0.05 µg/mL (≈ 2.06 µM) |  |  |  | 0.22 ± 0.04 µg/mL (≈ 0.405 µM) | 0.49 µg/mL (≈ 0.902 µM) | 0.16 ± 0.02 µg/mL (≈ 0.294 µM) | 0.81 ± 0.04 µg/mL (≈ 1.49 µM) | 0.67 ± 0.03 µg/mL (≈ 1.23 µM) | 0.74 ± 0.01 µg/mL (≈ 1.36 µM) | 1.94 ± 0.02 µg/mL (≈ 3.57 µM)
